According to the supplement of paper PMC6965134:
± gives the standard deviation of the averaged measurements.

Assay: TIMS collisional cross section (CCS, N2) of the lipid ion; higher = larger ion cross section
Settings: ionization mode: negative, one isomer drawn
Procedure: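 Lipid extracts of human plasma (NIST SRM 1950), mouse liver or HeLa cells were separated by nanoflow C18 LC (30 min gradient) and analysed by TIMS-PASEF on a timsTOF Pro. Ion mobility was calibrated with the Agilent tuning mix (negative mode ions) and converted to collisional cross sections (Mason–Schamp, N2).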

[1] = sample type: Mouse Liver, ion (formula + adduct): [C43H74NO9P-H] 1-
[2] = sample type: Human plasma, ion (formula + adduct): [C43H78NO9P-H] 1-
[3] = sample type: Mouse Liver, ion (formula + adduct): [C43H78NO9P-H] 1-
[4] = sample type: Human plasma, ion (formula + adduct): [C45H78NO9P-H] 1-
[5] = sample type: Mouse Liver, ion (formula + adduct): [C42H76NO8P+AcO] 1-
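Also: lipids from MTBE extraction, five replicate injections per sample, 100 ms TIMS ramp spanning 0.6–1.95 Vs/cm², lipid identity assigned from PASEF MS/MS spectra.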

SMILES: CC/C=C\C/C=C\CC(O)/C=C/C=C\C/C=C\C/C=C\CCC(=O)O[C@H](COC(=O)CCCCCCCCCCCCCCC)COP(=O)(O)OCCN (some centres not stated) [Oxidized PE 16:0@_22:6]
- TIMS collisional cross section [1]: 279 Å²

SMILES: CC/C=C\C/C=C\CC(O)/C=C/C=C\C/C=C\C/C=C\CCC(=O)O[C@H](COC(=O)CCCCCCCCCCCCCCC)COP(=O)(O)OCCN (some centres not stated) [Oxidized PE 16:0_22:6@]
- TIMS collisional cross section [1]: 290.6 Å²

SMILES: CC/C=C\C/C=C\CC(O)/C=C/C=C\C/C=C\C/C=C\CCC(=O)O[C@H](COC(=O)CCCCCCCCCCCCCCC)COP(=O)(O)OCCN (some centres not stated) [Oxidized PE 16:0_22:6]
- TIMS collisional cross section (sample type: Human plasma, ion (formula + adduct): [C43H74NO9P-H] 1-): 277.85 ± 0.78 Å²
- TIMS collisional cross section [1]: 277.43 ± 0.71 Å²

SMILES: CCCCC/C=C\C[C@H](O)/C=C/C=C\C/C=C\CCCC(=O)O[C@H](CO/C=C\CCCCCCCCCCCCCCCC)COP(=O)(O)OCCN [Oxidized PE 18:0@_20:4]
- TIMS collisional cross section (sample type: Human plasma, ion (formula + adduct): [C43H78NO8P-H] 1-): 280.43 ± 1.2 Å²

SMILES: CCCCC/C=C\C[C@H](O)/C=C/C=C\C/C=C\CCCC(=O)O[C@H](COC(=O)CCCCCCCCCCCCCCCCC)COP(=O)(O)OCCN [Oxidized PE 18:0@_20:4]
- TIMS collisional cross section [2]: 298.2 Å²
- TIMS collisional cross section [3]: 281.9 Å²

SMILES: CC/C=C\C/C=C\CC(O)/C=C/C=C\C/C=C\C/C=C\CCC(=O)O[C@H](COC(=O)CCCCCCCCCCCCCCCCC)COP(=O)(O)OCCN (some centres not stated) [Oxidized PE 18:0@_22:6]
- TIMS collisional cross section [4]: 285.8 Å²

SMILES: CCCCC/C=C\C[C@H](O)/C=C/C=C\C/C=C\CCCC(=O)O[C@H](COC(=O)CCCCCCCCCCCCCCCCC)COP(=O)(O)OCCN [Oxidized PE 18:0_20:4]
- TIMS collisional cross section [2]: 282.5 Å²
- TIMS collisional cross section [3]: 279 Å²

SMILES: CC/C=C\C/C=C\CC(O)/C=C/C=C\C/C=C\C/C=C\CCC(=O)O[C@H](COC(=O)CCCCCCCCCCCCCCCCC)COP(=O)(O)OCCN (some centres not stated) [Oxidized PE 18:0_22:6@]
- TIMS collisional cross section [4]: 287 Å²

SMILES: CC/C=C\C/C=C\CC(O)/C=C/C=C\C/C=C\C/C=C\CCC(=O)O[C@H](COC(=O)CCCCCCCCCCCCCCCCC)COP(=O)(O)OCCN (some centres not stated) [Oxidized PE 18:0_22:6]
- TIMS collisional cross section [4]: 284.6 Å²

SMILES: CCCCC/C=C\C[C@H](O)/C=C/C=C\C/C=C\CCCC(=O)O[C@H](CO/C=C\CCCCCC/C=C\CCCCCCCC)COP(=O)(O)OCCN [Oxidized PE 18:1@_20:4]
- TIMS collisional cross section (sample type: Human plasma, ion (formula + adduct): [C43H76NO8P-H] 1-): 279.7 Å²

SMILES: CCCCCCCCCCCCCCCCCCCCC(=O)O[C@H](COC(=O)CCCCCCCCCCCCCCC)COP(=O)(O)O [PA 16:0_21:0@]
- TIMS collisional cross section (sample type: Mouse Liver, ion (formula + adduct): [C40H79O8P+Cl] 1-): 276.3 Å²

SMILES: CCCCCCCCCCCCCCCCCCCCCC(=O)O[C@H](COC(=O)CCCCCCCCCCCCCCCC)COP(=O)(O)O [PA 17:0_22:0@]
- TIMS collisional cross section (sample type: Human plasma, ion (formula + adduct): [C42H83O8P-CH3] 1-): 286.6 Å²

SMILES: CCCCCCCCCCCCCCCCCC(=O)OC[C@H](COP(=O)(O)O)OC(=O)CCCCCCCCCCCCCCC [PA 18:0@_16:0]
- TIMS collisional cross section (sample type: Mouse Liver, ion (formula + adduct): [C37H73O8P+Cl] 1-): 267.2 Å²

SMILES: CCCCCCCCCCCCCCCCCC(=O)OCC(COP(=O)(O)O)OC(=O)CCCCCCCCCCCCCCCCC (configuration not stated) [PA 18:0_18:0]
- TIMS collisional cross section (sample type: Mouse Liver, ion (formula + adduct): [C39H77O8P+Cl] 1-): 273.4 Å²

SMILES: CCCCCCCCCCCCCCCCCC(=O)O[C@H](COC(=O)CCC)COP(=O)([O-])OCC[N+](C)(C)C [PC 4:0@_18:0]
- TIMS collisional cross section (sample type: Mouse Liver, ion (formula + adduct): [C30H60NO8P+HCOO] 1-): 248.5 Å²

SMILES: CCCCCCCCCCCCCCCCCCCC(=O)O[C@H](COC(=O)CCCCCCC)COP(=O)([O-])OCC[N+](C)(C)C [PC 8:0_20:0@]
- TIMS collisional cross section (sample type: Mouse Liver, ion (formula + adduct): [C36H72NO8P+HCOO] 1-): 277.6 Å²

SMILES: CCCCCC/C=C\CCCCCCCC(=O)O[C@H](COC(=O)CCCCCCCCCCC)COP(=O)([O-])OCC[N+](C)(C)C [PC 12:0@_16:1]
- TIMS collisional cross section (sample type: Human plasma, ion (formula + adduct): [C36H70NO8P+HCOO] 1-): 275.3 Å²

SMILES: CCCCCCCCCCCCCC(=O)O[C@H](COC(=O)CCCCCCCCCCC)COP(=O)([O-])OCC[N+](C)(C)C [PC 12:0_14:0]
- TIMS collisional cross section (sample type: Human plasma, ion (formula + adduct): [C34H68NO8P+HCOO] 1-): 270.8 Å²

SMILES: CCCCC/C=C\C/C=C\CCCCCCCC(=O)O[C@H](COC(=O)CCCCCCCCCCCC)COP(=O)([O-])OCC[N+](C)(C)C [PC 13:0@_18:2]
- TIMS collisional cross section (sample type: Mouse Liver, ion (formula + adduct): [C39H74NO8P-H] 1-): 266.3 Å²

SMILES: CCCCC/C=C\C/C=C\C/C=C\C/C=C\CCCC(=O)O[C@H](COC(=O)CCCCCCCCCCCC)COP(=O)([O-])OCC[N+](C)(C)C [PC 13:0@_20:4]
- TIMS collisional cross section (sample type: Human plasma, ion (formula + adduct): [C41H74NO8P-H] 1-): 289.2 Å²
- TIMS collisional cross section (sample type: Mouse Liver, ion (formula + adduct): [C41H74NO8P-CH3] 1-): 267.1 Å²
- TIMS collisional cross section (sample type: Mouse Liver, ion (formula + adduct): [C41H74NO8P-H] 1-): 272.3 Å²

SMILES: CCCCCC/C=C\CCCCCCCC(=O)O[C@H](COC(=O)CCCCCCCCCCCCC)COP(=O)([O-])OCC[N+](C)(C)C [PC 14:0@_16:1]
- TIMS collisional cross section (sample type: Mouse Liver, ion (formula + adduct): [C38H74NO8P+HCOO] 1-): 280.9 Å²

SMILES: CCCCCCC/C=C\CCCCCCCC(=O)O[C@H](COC(=O)CCCCCCCCCCCCC)COP(=O)([O-])OCC[N+](C)(C)C [PC 14:0@_17:1]
- TIMS collisional cross section (sample type: Mouse Liver, ion (formula + adduct): [C39H76NO8P-CH3] 1-): 265 Å²

SMILES: CCCCCC/C=C\CCCCCCCCCC(=O)O[C@H](COC(=O)CCCCCCCCCCCCC)COP(=O)([O-])OCC[N+](C)(C)C [PC 14:0@_18:1]
- TIMS collisional cross section (sample type: Human plasma, ion (formula + adduct): [C40H78NO8P+HCOO] 1-): 286 Å²

SMILES: CC/C=C\C/C=C\C/C=C\CCCCCCCC(=O)O[C@H](COC(=O)CCCCCCCCCCCCC)COP(=O)([O-])OCC[N+](C)(C)C [PC 14:0@_18:3]
- TIMS collisional cross section (sample type: Human plasma, ion (formula + adduct): [C40H74NO8P+HCOO] 1-): 284.9 Å²

SMILES: CC/C=C\C/C=C\C/C=C\C/C=C\CCCCC(=O)O[C@H](COC(=O)CCCCCCCCCCCCC)COP(=O)([O-])OCC[N+](C)(C)C [PC 14:0@_18:4]
- TIMS collisional cross section (sample type: Human plasma, ion (formula + adduct): [C40H72NO8P+HCOO] 1-): 277.9 Å²

SMILES: CCCCC/C=C\C/C=C\C/C=C\C/C=C\CCCC(=O)O[C@H](COC(=O)CCCCCCCCCCCCC)COP(=O)([O-])OCC[N+](C)(C)C [PC 14:0@_20:4]
- TIMS collisional cross section (sample type: Mouse Liver, ion (formula + adduct): [C42H76NO8P-H] 1-): 272.8 Å²

SMILES: CC/C=C\C/C=C\C/C=C\C/C=C\C/C=C\C/C=C\CCC(=O)O[C@H](COC(=O)CCCCCCCCCCCCC)COP(=O)([O-])OCC[N+](C)(C)C [PC 14:0@_22:6]
- TIMS collisional cross section (sample type: Mouse Liver, ion (formula + adduct): [C44H76NO8P-H] 1-): 277.87 ± 0.55 Å²

SMILES: CCCCCCCCCCCCCC(=O)OC[C@H](COP(=O)([O-])OCC[N+](C)(C)C)OC(=O)CCCCCCCCCCCCC [PC 14:0_14:0]
- TIMS collisional cross section (sample type: Human plasma, ion (formula + adduct): [C36H72NO8P+HCOO] 1-): 277.1 Å²

SMILES: CCCCCCCCCCCCCCCC(=O)O[C@H](COC(=O)CCCCCCCCCCCCC)COP(=O)([O-])OCC[N+](C)(C)C [PC 14:0_16:0@]
- TIMS collisional cross section (sample type: Mouse Liver, ion (formula + adduct): [C38H76NO8P+HCOO] 1-): 283.8 Å²

SMILES: CCCCCCCCCCCCCCCC(=O)O[C@H](COC(=O)CCCCCCCCCCCCC)COP(=O)([O-])OCC[N+](C)(C)C [PC 14:0_16:0]
- TIMS collisional cross section (sample type: Human plasma, ion (formula + adduct): [C38H76NO8P+HCOO] 1-): 282.7 Å²

SMILES: CCCCCC/C=C\CCCCCCCC(=O)O[C@H](COC(=O)CCCCCCCCCCCCC)COP(=O)([O-])OCC[N+](C)(C)C [PC 14:0_16:1]
- TIMS collisional cross section (sample type: Human plasma, ion (formula + adduct): [C38H74NO8P+HCOO] 1-): 280.9 Å²

SMILES: CCCCCCCCCCCCCCCCCC(=O)O[C@H](COC(=O)CCCCCCCCCCCCC)COP(=O)([O-])OCC[N+](C)(C)C [PC 14:0_18:0]
- TIMS collisional cross section (sample type: Human plasma, ion (formula + adduct): [C40H80NO8P+HCOO] 1-): 287.7 Å²

SMILES: CCCCCC/C=C\CCCCCCCCCC(=O)O[C@H](COC(=O)CCCCCCCCCCCCC)COP(=O)([O-])OCC[N+](C)(C)C [PC 14:0_18:1]
- TIMS collisional cross section (sample type: Mouse Liver, ion (formula + adduct): [C40H78NO8P+HCOO] 1-): 286 Å²

SMILES: CC/C=C\C/C=C\C/C=C\CCCCCCCC(=O)O[C@H](COC(=O)CCCCCCCCCCCCC)COP(=O)([O-])OCC[N+](C)(C)C [PC 14:0_18:3]
- TIMS collisional cross section (sample type: Mouse Liver, ion (formula + adduct): [C40H74NO8P+HCOO] 1-): 284 Å²

SMILES: CCCCC/C=C\C/C=C\C/C=C\C/C=C\CCCC(=O)O[C@H](COC(=O)CCCCCCCCCCCCC)COP(=O)([O-])OCC[N+](C)(C)C [PC 14:0_20:4@]
- TIMS collisional cross section [5]: 288.1 Å²

SMILES: CCCCC/C=C\C/C=C\C/C=C\C/C=C\CCCC(=O)O[C@H](COC(=O)CCCCCCCCCCCCC)COP(=O)([O-])OCC[N+](C)(C)C [PC 14:0_20:4]
- TIMS collisional cross section (sample type: Human plasma, ion (formula + adduct): [C42H76NO8P+HCOO] 1-): 288.2 Å²
- TIMS collisional cross section [5]: 290.4 Å²
